Assay results taken from patent publication US20240277698A1, “METHODS OF USING ALDOSTERONE SYNTHASE INHIBITORS” (CINCOR PHARMA, INC., priority 2021, published 2024).

Target: T1, aldosterone synthase (Homo sapiens, UniProt P19099)
T1 construct: synthesized in the adrenal cortex by aldosterone synthase; endogenous in cells; host or cells: adrenal cortex of healthy human subjects (in vivo, oral dosing)
T1 sequence (P19099 25-503): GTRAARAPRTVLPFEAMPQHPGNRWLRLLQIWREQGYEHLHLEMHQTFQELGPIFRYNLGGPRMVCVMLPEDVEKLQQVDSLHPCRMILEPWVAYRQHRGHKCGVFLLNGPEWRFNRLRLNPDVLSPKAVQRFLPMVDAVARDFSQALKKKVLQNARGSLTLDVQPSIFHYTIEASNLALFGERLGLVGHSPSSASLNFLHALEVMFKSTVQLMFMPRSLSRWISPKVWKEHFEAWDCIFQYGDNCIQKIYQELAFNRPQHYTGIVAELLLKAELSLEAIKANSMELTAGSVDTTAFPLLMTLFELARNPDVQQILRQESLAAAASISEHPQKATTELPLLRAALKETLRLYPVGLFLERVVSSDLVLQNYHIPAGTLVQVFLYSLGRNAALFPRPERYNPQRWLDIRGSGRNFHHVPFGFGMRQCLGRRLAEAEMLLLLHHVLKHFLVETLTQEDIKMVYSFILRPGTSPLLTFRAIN
Test: MAD study: plasma aldosterone and precursors (18-hydroxycorticosterone, corticosterone, 11-deoxycorticosterone)
Type: in vivo
Conditions: mean; for Plasma 11-deoxycorticosterone, Day −1 predose / Plasma 18-hydroxycorticosterone, Day −1 predose / Plasma aldosterone, Day −1 predose / Plasma corticosterone, Day −1 predose: baseline
Excerpt: For each subject, the study consisted of: • A screening period of up to 28 days; • A 5-day inpatient run-in period during which subjects adhered to a controlled, standardized diet and underwent baseline PD assessments; • A 15-day inpatient treatment period, during which subjects received (R)-compound 1 or placebo once daily for 10 days while adhering to a controlled, standardized diet, followed by PK and PD sampling over an additional 5 days; and • A follow-up visit 3 days (1 day) after discharge from the clinical unit. • A cortisol stimulation test (Cohorts 1 and 2 only) and standing aldosterone assessment (all cohorts) were performed on Days 1 and 10. Serial blood samples for PK and PD were obtained prior to and at specified time points over 24 hours after dosing on Day 1 as well as prior to and at specified time points over 120 hours after dosing on Day 10. In addition, blood samples for PK were collected prior to dosing on Days 8 and 9. Urine for PK and PD measurements was collected over 24 hours starting just prior to dosing on Day 1 as well as over 120 hours starting just prior to dosing on Day 10. […]

CCC(=O)N[C@@H]1CCCc2c(-c3ccc4c(c3)CCC(=O)N4C)cncc21 [(R)-Compound 1, (R)—N-(4-(1-methyl-2-oxo-1,2,3,4-tetrahydroquinolin-6-yl)-5,6,7,8-tetrahydroisoquinolin-8-yl)propionamide]
Plasma 11-deoxycorticosterone, Day −1 predose (0.5 mg QD, normal salt diet): 52.625 pg/mL | Plasma 18-hydroxycorticosterone, Day −1 predose (0.5 mg QD, normal salt diet): 955.5 pg/mL | Plasma aldosterone, Day −1 predose (0.5 mg QD, normal salt diet): 131.588 pg/mL | Plasma corticosterone, Day −1 predose (0.5 mg QD, normal salt diet): 4302.5 pg/mL | Plasma 11-deoxycorticosterone, Day 1, 12 hours postdose (0.5 mg QD, normal salt diet): 35.900 pg/mL | Plasma 11-deoxycorticosterone, Day 1, predose (0.5 mg QD, normal salt diet): 50.938 pg/mL | Plasma 11-deoxycorticosterone, Day 2, predose (0.5 mg QD, normal salt diet): 72.950 pg/mL | Plasma 11-deoxycorticosterone, Day 10, 12 hours postdose (0.5 mg QD, normal salt diet): 70.813 pg/mL | Plasma 11-deoxycorticosterone, Day 10, 24 hours postdose (0.5 mg QD, normal salt diet): 115.663 pg/mL | Plasma 11-deoxycorticosterone, Day 10, predose (0.5 mg QD, normal salt diet): 112.375 pg/mL | Plasma 11-deoxycorticosterone, Percent change from Day −1 to Day 10, predose (0.5 mg QD, normal salt diet): 161.115% | Plasma 18-hydroxycorticosterone, Day 1, 12 hours postdose (0.5 mg QD, normal salt diet): 310.1 pg/mL | Plasma 18-hydroxycorticosterone, Day 1, predose (0.5 mg QD, normal salt diet): 943.1 pg/mL | Plasma 18-hydroxycorticosterone, Day 2, predose (0.5 mg QD, normal salt diet): 819.6 pg/mL | Plasma 18-hydroxycorticosterone, Day 10, 12 hours postdose (0.5 mg QD, normal salt diet): 326.5 pg/mL | Plasma 18-hydroxycorticosterone, Day 10, 24 hours postdose (0.5 mg QD, normal salt diet): 1016.4 pg/mL | Plasma 18-hydroxycorticosterone, Day 10, predose (0.5 mg QD, normal salt diet): 983.1 pg/mL | Plasma 18-hydroxycorticosterone, Percent change from Day −1 to Day 10 (0.5 mg QD, normal salt diet): 5.2% | Plasma aldosterone, Day 1, 12 hours postdose (0.5 mg QD, normal salt diet): 56.250 pg/mL | Plasma aldosterone, Day 1, predose (0.5 mg QD, normal salt diet): 133.013 pg/mL | Plasma aldosterone, Day 2, predose (0.5 mg QD, normal salt diet): 80.100 pg/mL | Plasma aldosterone, Day 10, 12 hours postdose (0.5 mg QD, normal salt diet): 83.625 pg/mL | Plasma aldosterone, Day 10, 24 hours postdose (0.5 mg QD, normal salt diet): 143.338 pg/mL | Plasma aldosterone, Day 10, predose (0.5 mg QD, normal salt diet): 152.875 pg/mL | Plasma aldosterone, Percent change from Day −1 to Day 10, predose (0.5 mg QD, normal salt diet): 28.841% | Plasma corticosterone, Day 1, 12 hours postdose (0.5 mg QD, normal salt diet): 695.6 pg/mL | Plasma corticosterone, Day 1, predose (0.5 mg QD, normal salt diet): 3170.0 pg/mL | Plasma corticosterone, Day 2, predose (0.5 mg QD, normal salt diet): 4490.0 pg/mL | Plasma corticosterone, Day 10, 12 hours postdose (0.5 mg QD, normal salt diet): 1211.4 pg/mL | Plasma corticosterone, Day 10, 24 hours postdose (0.5 mg QD, normal salt diet): 5923.8 pg/mL | Plasma corticosterone, Day 10, predose (0.5 mg QD, normal salt diet): 4187.5 pg/mL | Plasma corticosterone, Percent change from Day −1 to Day 10, predose (0.5 mg QD, normal salt diet): 73.0% | Plasma 11-deoxycorticosterone, Day −1 predose (1.5 mg QD, normal salt diet): 43.489 pg/mL | Plasma 18-hydroxycorticosterone, Day −1 predose (1.5 mg QD, normal salt diet): 1027.4 pg/mL | Plasma aldosterone, Day −1 predose (1.5 mg QD, normal salt diet): 143.100 pg/mL | Plasma corticosterone, Day −1 predose (1.5 mg QD, normal salt diet): 3748.3 pg/mL | Plasma 11-deoxycorticosterone, Day 1, 12 hours postdose (1.5 mg QD, normal salt diet): 19.656 pg/mL | Plasma 11-deoxycorticosterone, Day 1, predose (1.5 mg QD, normal salt diet): 44.711 pg/mL | Plasma 11-deoxycorticosterone, Day 2, predose (1.5 mg QD, normal salt diet): 53.344 pg/mL | Plasma 11-deoxycorticosterone, Day 10, 12 hours postdose (1.5 mg QD, normal salt diet): 46.733 pg/mL | Plasma 11-deoxycorticosterone, Day 10, 24 hours postdose (1.5 mg QD, normal salt diet): 84.767 pg/mL | Plasma 11-deoxycorticosterone, Day 10, predose (1.5 mg QD, normal salt diet): 73.322 pg/mL | Plasma 11-deoxycorticosterone, Percent change from Day −1 to Day 10, predose (1.5 mg QD, normal salt diet): 104.945% | Plasma 18-hydroxycorticosterone, Day 1, 12 hours postdose (1.5 mg QD, normal salt diet): 225.6 pg/mL | Plasma 18-hydroxycorticosterone, Day 1, predose (1.5 mg QD, normal salt diet): 991.7 pg/mL | Plasma 18-hydroxycorticosterone, Day 2, predose (1.5 mg QD, normal salt diet): 829.3 pg/mL | Plasma 18-hydroxycorticosterone, Day 10, 12 hours postdose (1.5 mg QD, normal salt diet): 318.4 pg/mL | Plasma 18-hydroxycorticosterone, Day 10, 24 hours postdose (1.5 mg QD, normal salt diet): 1000.1 pg/mL | Plasma 18-hydroxycorticosterone, Day 10, predose (1.5 mg QD, normal salt diet): 1047.9 pg/mL | Plasma 18-hydroxycorticosterone, Percent change from Day −1 to Day 10 (1.5 mg QD, normal salt diet): 6.1% | Plasma aldosterone, Day 1, 12 hours postdose (1.5 mg QD, normal salt diet): 27.111 pg/mL | Plasma aldosterone, Day 1, predose (1.5 mg QD, normal salt diet): 110.567 pg/mL | Plasma aldosterone, Day 2, predose (1.5 mg QD, normal salt diet): 52.933 pg/mL | Plasma aldosterone, Day 10, 12 hours postdose (1.5 mg QD, normal salt diet): 41.300 pg/mL | Plasma aldosterone, Day 10, 24 hours postdose (1.5 mg QD, normal salt diet): 92.533 pg/mL | Plasma aldosterone, Day 10, predose (1.5 mg QD, normal salt diet): 82.144 pg/mL | Plasma aldosterone, Percent change from Day −1 to Day 10, predose (1.5 mg QD, normal salt diet): −37.405% | Plasma corticosterone, Day 1, 12 hours postdose (1.5 mg QD, normal salt diet): 635.2 pg/mL | Plasma corticosterone, Day 1, predose (1.5 mg QD, normal salt diet): 3988.3 pg/mL | Plasma corticosterone, Day 2, predose (1.5 mg QD, normal salt diet): 4413.3 pg/mL | Plasma corticosterone, Day 10, 12 hours postdose (1.5 mg QD, normal salt diet): 1417.0 pg/mL | Plasma corticosterone, Day 10, 24 hours postdose (1.5 mg QD, normal salt diet): 6065.6 pg/mL | Plasma corticosterone, Day 10, predose (1.5 mg QD, normal salt diet): 5677.8 pg/mL | Plasma corticosterone, Percent change from Day −1 to Day 10, predose (1.5 mg QD, normal salt diet): 115.1% | Plasma 11-deoxycorticosterone, Day −1 predose (2.5 mg QD, low salt diet): 72.688 pg/mL | Plasma 18-hydroxycorticosterone, Day −1 predose (2.5 mg QD, low salt diet): 1269.6 pg/mL | Plasma aldosterone, Day −1 predose (2.5 mg QD, low salt diet): 272.125 pg/mL | Plasma corticosterone, Day −1 predose (2.5 mg QD, low salt diet): 6383.8 pg/mL | Plasma 11-deoxycorticosterone, Day 1, 12 hours postdose (2.5 mg QD, low salt diet): 133.300 pg/mL | Plasma 11-deoxycorticosterone, Day 1, predose (2.5 mg QD, low salt diet): 83.825 pg/mL | Plasma 11-deoxycorticosterone, Day 10, 12 hours postdose (2.5 mg QD, low salt diet): 204.250 pg/mL | Plasma 11-deoxycorticosterone, Day 10, 24 hours postdose (2.5 mg QD, low salt diet): 217.975 pg/mL | Plasma 11-deoxycorticosterone, Day 10, predose (2.5 mg QD, low salt diet): 164.725 pg/mL | Plasma 11-deoxycorticosterone, Percent change from Day −1 to Day 10, predose (2.5 mg QD, low salt diet): 412.560% | Plasma 18-hydroxycorticosterone, Day 1, 12 hours postdose (2.5 mg QD, low salt diet): 230.4 pg/mL | Plasma 18-hydroxycorticosterone, Day 1, predose (2.5 mg QD, low salt diet): 839.6 pg/mL | Plasma 18-hydroxycorticosterone, Day 10, 12 hours postdose (2.5 mg QD, low salt diet): 339.1 pg/mL
